In ChEMBL document CHEMBL1152002, “Synthesis of inhibitors of -1,3-fucosyltransferase” (Bioorg Med Chem Lett, 1997):

Experiments:
[1] = Compound was tested for the inhibition of Fucosyltransferase 4 alpha 1,3 at 8.5 uM GDP-fucose
[2] = Compound was tested for the inhibition of Fucosyltransferase 4 alpha 1,3 at 2 uM GDP-fucose

IC50 [1] [µM]	IC50 [2] [µM]	Compound
> 500	–	C[C@H]1[C@@H](O)[C@H](O)[C@H](O)CN1CCCO[C@@H]1O[C@@H](CO)[C@H](O)[C@H](O)[C@@H]1O
81	50	C[C@H]1[C@@H](O)[C@H](O)[C@H](O)CN1Cc1ccccc1O[C@@H]1O[C@@H](CO)[C@H](O)[C@H](O)[C@@H]1O
5	–	Nc1nc2c(ncn2[C@@H]2O[C@H](COP(=O)(O)OP(=O)(O)O)[C@@H](O)[C@H]2O)c(=O)[nH]1
233	–	C[C@H]1[C@@H](O)[C@H](O)[C@H](O)CN1CCCCO[C@@H]1O[C@@H](CO)[C@H](O)[C@H](O)[C@@H]1O
3500	–	C[C@@H]1NC[C@@H](O)[C@H](O)[C@@H]1O [DEOXYFUCONOJIRIMYCIN]
